Assay results reported in ChEMBL document CHEMBL5385961, “In vitro and in vivo evaluation of novel chromeno[2,3-d]pyrimidinones as therapeutic agents for triple negative breast cancer” (RSC Med Chem, 2024).
Calls of active or inactive are those of the source. The calls are words filed in the database; no cut-off is given here.

What was measured:
[1] = Cytotoxicity against human MCF-10A cells assessed as inhibition of cell growth incubated for 72 hrs by SRB assay; type: toxicity, cell-based
[2] = test system: Hs-578T; test: Cytotoxicity against human Hs-578T cells assessed as reduction in cell viability at 10 uM incubated for 72 hrs by SRB assay relative to control; type: functional
[3] = test system: Hs-578T; test: Induction of apoptosis in human Hs-578T cells assessed as increase in BAD protein expression at IC50 measured after 24 to 48 hrs by Western blot analysis; type: functional, cell-based; details: time 24-48 hrs
[4] = test system: Hs-578T; test: Induction of apoptosis in human Hs-578T cells assessed as increase in BID protein expression at IC50 measured after 24 to 48 hrs by Western blot analysis; type: functional, cell-based; details: time 24-48 hrs
[5] = test system: Hs-578T; test: Cytotoxicity against human Hs-578T cells assessed as cell viability at 30 uM incubated for 72 hrs by SRB assay relative to control; type: functional; details: read-out: Activity
[6] = species: Homo sapiens; test: Selectivity index, ratio of IC50 for human MCF-10A cells to IC50 for human Hs-578T cells
[7] = test system: MDA-MB-231; test: Cytotoxicity against human MDA-MB-231 cells assessed as cell viability at 10 uM incubated for 72 hrs by SRB assay relative to control; type: functional; details: read-out: Activity
[8] = test system: MCF7; test: Cytotoxicity against human MCF7 cells assessed as cell viability at 30 uM incubated for 72 hrs by SRB assay relative to control; type: functional; details: read-out: Activity
[9] = test system: MDA-MB-231; test: Cytotoxicity against human MDA-MB-231 cells assessed as cell viability at 30 uM incubated for 72 hrs by SRB assay relative to control; type: functional; details: read-out: Activity
[10] = test system: Hs-578T; test: Induction of apoptosis in human Hs-578T cells assessed as increase in caspase-8 protein expression at IC50 measured after 48 hrs by Western blot analysis; type: functional, cell-based
[11] = test system: Hs-578T; test: Cytotoxicity against human Hs-578T cells assessed as cell viability at 10 uM incubated for 72 hrs by SRB assay relative to control; type: functional; details: read-out: Activity
[12] = test system: Hs-578T; test: Induction of apoptosis in human Hs-578T cells assessed as increase in caspase-9 protein expression at IC50 measured after 24 to 48 hrs by Western blot analysis; type: functional, cell-based; details: time 24-48 hrs
[13] = test system: Hs-578T; test: Cytotoxicity against human Hs-578T cells assessed as inhibition of cell growth incubated for 72 hrs by SRB assay; type: functional, cell-based
[14] = test system: MCF7; test: Cytotoxicity against human MCF7 cells assessed as cell viability at 10 uM incubated for 72 hrs by SRB assay relative to control; type: functional; details: read-out: Activity
[15] = test system: Hs-578T; test: Induction of apoptosis in human Hs-578T cells assessed as increase in caspase-8 protein expression at IC50 measured after 24 hrs by Western blot analysis; type: functional, cell-based
[16] = test system: Hs-578T; test: Induction of apoptosis in human Hs-578T cells assessed as increase in cleaved PARP level at IC50 measured after 48 hrs by Western blot analysis; type: functional, cell-based
[17] = test system: Hs-578T; test: Cytotoxicity against human Hs-578T cells assessed as reduction in cell proliferation at IC50 measured after 24 hrs by BrdU incorporation assay relative to control; type: functional; set-up: scale not given: the % may be the effect or the level left
[18] = test system: Hs-578T; test: Induction of apoptosis in human Hs-578T cells assessed as increase in early apoptotic cells at IC50 measured after 24 to 48 hrs by Annexin V-FITC/PI staining based flow cytometry analysis; type: functional, cell-based; details: time 24-48 hrs
[19] = test system: Hs-578T; test: Cytotoxicity against human Hs-578T cells assessed as reduction in cell proliferation at 0.5 times IC50 measured after 24 hrs by BrdU incorporation assay relative to control; type: functional; set-up: scale not given: the % may be the effect or the level left
[20] = test system: Hs-578T; test: Antitumor activity against human Hs-578T cells implanted in chick eggs assessed as regression in tumors' perimeter at 2 times IC50 administered starting from day 13 and measured 17 days post embryo development by stereomicroscopic analysis relative to control; type: functional; details: time 5 day
[21] = test system: Hs-578T; test: Induction of apoptosis in human Hs-578T cells assessed as reduction in viable cells at IC50 measured after 24 to 48 hrs by Annexin V-FITC/PI staining based flow cytometry analysis; type: functional, cell-based; details: time 24-48 hrs
[22] = test system: Hs-578T; test: Induction of cell cycle arrest in human Hs-578T cells assessed as accumulation of cells at S phase at IC50 measured after 48 hrs by RNase/PI staining based flow cytometry analysis; type: functional
[23] = test system: Hs-578T; test: Induction of apoptosis in human Hs-578T cells assessed as increase in cleaved PARP level at IC50 measured after 24 to 48 hrs by Western blot analysis; type: functional, cell-based; details: time 24-48 hrs
[24] = Toxicity in wild type Caenorhabditis elegans N2 assessed as drug tolerance at 0.0001 to 50 uM; details: dose 0.0001-50 µM
[25] = test system: Hs-578T; test: Induction of apoptosis in human Hs-578T cells assessed as increase in late apoptotic cells at IC50 measured after 24 hrs by Annexin V-FITC/PI staining based flow cytometry analysis; type: functional, cell-based
[26] = test system: Hs-578T; test: Induction of cell cycle arrest in human Hs-578T cells assessed as reduction in G0/G1 cell population at IC50 measured after 24 to 48 hrs by RNase/PI staining based flow cytometry analysis; type: functional; details: time 24-48 hrs
[27] = Toxicity in wild type Caenorhabditis elegans N2 assessed as effect on food consumption at 0.0001 to 50 uM measured daily for 7 days by food clearance assay; details: 168 h, dose 0.0001-50 µM, time 7 day
[28] = test system: Hs-578T; test: Cytotoxicity against human Hs-578T cells assessed as reduction in cell proliferation at IC50 measured after 48 hrs by BrdU incorporation assay relative to control; type: functional; set-up: scale not given: the % may be the effect or the level left
[29] = test system: Hs-578T; test: Induction of cell cycle arrest in human Hs-578T cells assessed as accumulation of cells at S phase at IC50 measured after 24 hrs by RNase/PI staining based flow cytometry analysis; type: functional
[30] = test system: Hs-578T; test: Induction of cell cycle arrest in human Hs-578T cells assessed as accumulation of cells at G2/M phase at IC50 measured after 24 hrs by RNase/PI staining based flow cytometry analysis; type: functional
[31] = test system: Hs-578T; test: Antitumor activity against human Hs-578T cells implanted in chick eggs assessed as tumor growth regression at 2 times IC50 administered starting from day 13 and measured 17 days post embryo development by stereomicroscopic analysis; type: functional, cell-based; details: time 5.0 day
[32] = test system: Hs-578T; test: Cytotoxicity against human Hs-578T cells assessed as reduction in cell proliferation at 0.5 times IC50 measured after 48 hrs by BrdU incorporation assay relative to control; type: functional; set-up: scale not given: the % may be the effect or the level left

| SMILES | IC50 at 72 h [1] | Activity [2] | Activity [3] | Activity [4] | viability at 30 µM [5] | Ratio IC50 [6] | viability at 10 µM [7] | viability at 30 µM [8] | viability at 30 µM [9] | Activity [10] | viability at 10 µM [11] | Activity [12] | IC50 [13] | viability at 10 µM [14] | Activity [15] | other results |
| --- | --- | --- | --- | --- | --- | --- | --- | --- | --- | --- | --- | --- | --- | --- | --- | --- |
| COc1cccc(-c2nc3c(c(=O)[nH]2)Cc2cc(Cl)ccc2O3)c1 | 14 µM | ~50% | Active | Active | 33.9% | 0.06 | 85.1% | 35.4% | 18.4% | inactive | 54.7% | Active | 13.1 µM | 81.5% | Active |  |
| O=c1c(O)c(-c2ccc(O)c(O)c2)oc2cc(O)cc(O)c12 [QUERCETIN] | 9.32 µM |  |  |  |  | 0.82 |  |  |  |  |  |  | 50.5 µM |  |  |  |
| COc1cccc2c1Oc1nc(-c3cc(C(C)(C)C)c(O)c(C(C)(C)C)c3)[nH]c(=O)c1C2 | > 60 µM | ~50% | Active | Active | 18.7% | > 5.61 | 68.1% | 43.5% | 58.6% | inactive | 30% | Active | 9.08 µM | 59.8% | Active | Activity [16]: Active |
| O=c1[nH]c(-c2ccccc2)nc2c1Cc1cc(Br)ccc1O2 | > 60 µM | ~50% | Active | Active | 21.1% | > 12.3 | 62.4% | 36.7% | 52.1% | inactive | 40.2% | Active | 4.5 µM | 39.2% | Active | Activity [17]: ~70%; Activity [18]: Active; Activity [19]: ~40%; Activity [20]: 6.3%; Activity [21]: Active; Activity [22]: Active; Activity [23]: Active; Activity [24]: Non-Toxic; Activity [25]: Active; Activity [26]: Active; Activity [27]: Non-Toxic; Activity [28]: <=99%; Activity [29]: inactive; Activity [30]: inactive; Activity [31]: Active; Activity [32]: <=50% |
| COc1cccc2c1Oc1nc(-c3cccc(O)c3)[nH]c(=O)c1C2 |  |  |  |  | 67.3% |  | 102% | 25.4% | 102% |  | 75.9% |  |  | 38% |  |  |
| CC(C)(C)c1cc(-c2nc3c(c(=O)[nH]2)Cc2ccccc2O3)cc(C(C)(C)C)c1O |  |  |  |  | 81% |  | 95.1% | 94.7% | 95.2% |  | 80.2% |  |  | 97.7% |  |  |
